Nine molecules from ChEMBL document CHEMBL1132137, “Synthesis and antiviral activity of some N-benzenesulphonylbenzimidazoles” (Bioorg Med Chem Lett, 1999) can be followed below.

Values after ≈ are worked out from the molar mass of the structure shown. Values joined by “and” are separate entries in the source; they are usually repeats but may differ in a detail not shown here. Identical values can stand only once.

Experiment [1] deals with Vero. Nature of the experiment: (§1) Cytotoxicity on the vero cell culture infected with mL and was determined as reduction in protein content by the Lowry test. Format: functional, Chlorocebus sabaeus.
The subject of experiment [2] is Human alphaherpesvirus 1. Nature of the experiment: Antiviral activity against the Herpes simplex 1 virus (DNA virus) at a concentration of 2 ug/mL was determined as Plaque forming unit/mL(PFU) by plaque assay. Format: functional.
In experiment [3] the test system is Mumps virus. Put plainly: Antiviral activity against the Mumps virus (RNA virus) at a concentration of 2 ug/mL was determined as total cell infectious dose 50/mL (TCID50) by viral yield assay. Format: functional, Mumps orthorubulavirus.
The subject of experiment [4] is Vaccinia virus. Nature of the experiment: Antiviral activity against the Vaccinia virus (DNA virus) at a concentration of 2 ug/mL was determined as Plaque forming unit/mL(PFU) by plaque assay. The class given is functional, Orthopoxvirus vaccinia.
The subject of experiment [5] is Vero. Put plainly: Cytotoxicity on the vero cell culture infected with Coxsackie B5 virus at a concentration of 2 ug/mL was determined as cell viability by the MTT test. The class given is functional, Chlorocebus sabaeus. Background: Formazan colour is commonly taken as a measure of viable cells.
Experiment [6] deals with Vero. Described as §1. The class given is functional, Chlorocebus sabaeus. This is another data set of the same source.
Experiment [7] has as its system Coxsackievirus B5. Nature of the experiment: Inhibitory concentration required to reduce viral plaque formation of Coxsackie B5 virus by 50%. The class given is functional, organism-based. Conditions: Enterovirus B.
Experiment [8] has as its system Coxsackievirus B5. Nature of the experiment: Antiviral activity against the Coxsackie B5 virus (RNA virus) at a concentration of 2 ug/mL was determined as total cell infectious dose 50/mL (TCID50) by viral yield assay. The class given is functional.
Experiment [9] relates to Vero. Nature of the experiment: Cytotoxicity on the vero cell culture infected with Coxsackie B5 virus at a concentration of 1 ug/mL was determined as cell viability by the MTT test. The class given is functional, Chlorocebus sabaeus.
Experiment [10] concerns Vero. Put plainly: Cytotoxicity on the vero cell culture infected with Coxsackie B5 virus at a concentration of 5 ug/mL was determined as cell viability by the MTT test. The class given is functional, Chlorocebus sabaeus.
In experiment [11] the test system is Vero. The experiment is described as §1. Format: functional, Chlorocebus sabaeus. More on the design: unit not given here.
Experiment [12] has as its system Vero. Put plainly: Cytotoxicity on the vero cell culture infected with Coxsackie B5 virus at a concentration of 3 ug/mL was determined as cell viability by the MTT test. Format: functional, Chlorocebus sabaeus.
Experiment [13] deals with Coxsackievirus B5. Nature of the experiment: Antiviral activity against the Coxsackie B5 virus (RNA virus) at a concentration of 3 ug/mL was determined as total cell infectious dose 50/mL (TCID50) by viral yield assay. Format: functional.
Experiment [14] relates to Vero. Described as §1. Format: functional, Chlorocebus sabaeus. Also noted: unit not given here. This is another data set of the same source.
In experiment [15] the test system is Vero. The experiment is described as §1. Format: functional, Chlorocebus sabaeus. This is another data set of the same source.
Experiment [16] concerns Vero. Put plainly: Cytotoxicity on the vero cell culture infected with Coxsackie B5 virus at a concentration of 4 ug/mL was determined as cell viability by the MTT test. Format: functional, Chlorocebus sabaeus.
Experiment [17] relates to Coxsackievirus B5. Nature of the experiment: Antiviral activity against the Coxsackie B5 virus (RNA virus) at a concentration of 4 ug/mL was determined as total cell infectious dose 50/mL (TCID50) by viral yield assay. The class given is functional.
Experiment [18] deals with Human alphaherpesvirus 1. Nature of the experiment: Antiviral activity against the Herpes simplex 1 virus (DNA virus) at a concentration of 5 ug/mL was determined as Plaque forming unit/mL(PFU) by plaque assay. The class given is functional.
The subject of experiment [19] is Vaccinia virus. Put plainly: Antiviral activity against the Vaccinia virus (DNA virus) at a concentration of 5 ug/mL was determined as Plaque forming unit/mL(PFU) by plaque assay. The class given is functional, Orthopoxvirus vaccinia.
Experiment [20] concerns Coxsackievirus B5. Nature of the experiment: Antiviral activity against the Coxsackie B5 virus (RNA virus) at a concentration of 5 ug/mL was determined as total cell infectious dose 50/mL (TCID50) by viral yield assay. Format: functional.
In experiment [21] the test system is Mumps virus. Put plainly: Antiviral activity against the Mumps virus (RNA virus) at a concentration of 5 ug/mL was determined as total cell infectious dose 50/mL (TCID50) by viral yield assay. The class given is functional, Mumps orthorubulavirus.
Experiment [22] has as its system Vero. Put plainly: Cytotoxicity on the vero cell culture infected with Coxsackie B5 virus at a concentration of 10 ug/mL was determined as cell viability by the MTT test. Format: functional, Chlorocebus sabaeus.
In experiment [23] the test system is Vero. Nature of the experiment: Cytotoxicity on the vero cell culture infected with Coxsackie B5 virus at a concentration of 80 ug/mL was determined as cell viability by the MTT test. The class given is functional, Chlorocebus sabaeus.
The test system of experiment [24] is Coxsackievirus B5. Nature of the experiment: Antiviral activity against the Coxsackie B5 virus (RNA virus) at a concentration of 80 ug/mL was determined as total cell infectious dose 50/mL (TCID50) by viral yield assay. The class given is functional.

With `O=[N+]([O-])c1ccccc1S(=O)(=O)n1c(CCc2ccccn2)nc2cc(Cl)c(Cl)cc21`, the Cytotoxicity in the experiment on Vero [1] turned out to be 784.8; in the experiment with Vero [6] it was 840.5. Moreover, the Activity with Human alphaherpesvirus 1 [2] was 4700000 pfu/ml; with Vaccinia virus [4] it was 120 pfu/ml. In addition, the TCID50 in the experiment with Mumps virus [3] was found to be 100000 mL⁻¹; with Coxsackievirus B5 [8], 1000000 mL⁻¹. In addition, the Cell viability in the experiment on Vero [5] is 1.36; in the experiment on Vero [9] it was 1.49. Inhibition with Coxsackievirus B5 [7] was half-maximal at 8 µg/mL (≈ 16.8 µM) (IC50).
Take `O=[N+]([O-])c1ccc(S(=O)(=O)n2c(Sc3ncccc3[N+](=O)[O-])nc3ccccc32)cc1`: the Cell viability in the experiment with Vero [10] came out at 0.8; with Vero [12], 1.36. Also, the Cytotoxicity is listed as 508.9 in the experiment on Vero [11] and 678.6 in the experiment on Vero [14]. Besides, the TCID50 in the experiment on Coxsackievirus B5 [13] worked out at 10000000 mL⁻¹.
As to `O=[N+]([O-])c1ccc(S(=O)(=O)n2c(SCc3ccccn3)nc3ccccc32)cc1`, the Cytotoxicity in the experiment on Vero [15] is on record as 734.2; in the experiment on Vero [1], 744.3. The Cell viability in the experiment with Vero [16] was 1.12; in the experiment with Vero [5], 1.44. For the same molecule, the TCID50 with Coxsackievirus B5 [17] stood at 1000000 mL⁻¹.
With `O=[N+]([O-])c1ccc(S(=O)(=O)n2c(Sc3ncccc3[N+](=O)[O-])nc3cc(Cl)c(Cl)cc32)cc1`, the values for the Cell viability with Vero [10] and in the experiment with Vero [12] were 0.79 and 1.27, respectively. In addition, the values for the Cytotoxicity in the experiment with Vero [11] and with Vero [14] were 456.1 and 595.6, respectively. This molecule also had a TCID50 in the experiment with Coxsackievirus B5 [13] of 1000000 mL⁻¹.
In the case of `O=[N+]([O-])c1ccccc1S(=O)(=O)n1c(CCc2ccccn2)nc2ccccc21`, the Activity in the experiment with Human alphaherpesvirus 1 [18] is reported as 1800000 pfu/ml; in the experiment on Vaccinia virus [19], 750 pfu/ml. In addition, the Cytotoxicity in the experiment on Vero [1] is recorded as 627.8; with Vero [11], 759.5. The TCID50 worked out at 100000 mL⁻¹ in the experiment with Coxsackievirus B5 [20] and 10000 mL⁻¹ with Mumps virus [21]. In the experiment on Coxsackievirus B5 [7], the IC50 (usually the concentration at which inhibition is half-maximal) amounted to 5 µg/mL (≈ 12.2 µM). Also, in the experiment with Vero [22], the Cell viability was 0.82 and 1.23.
Consider `O=[N+]([O-])c1ccc(S(=O)(=O)n2c(SCc3ccccn3)nc3cc(Cl)c(Cl)cc32)cc1`, for which the Cell viability came to 0.89 in the experiment with Vero [10] and 1.23 in the experiment on Vero [12]. Moreover, the Cytotoxicity in the experiment on Vero [11] was 540.8; with Vero [14], 663.4. In addition, in the experiment with Coxsackievirus B5 [13], the TCID50 came out at 1000000 mL⁻¹.
As to `O=[N+]([O-])c1ccccc1S(=O)(=O)n1c(SCc2ccccn2)nc2ccccc21`, the Cytotoxicity was 724.1 in the experiment with Vero [1] and 774.7 with Vero [6]. For the same molecule, the Cell viability is 1.02 in the experiment with Vero [5] and 1.42 in the experiment on Vero [9]. Further, the TCID50 in the experiment on Coxsackievirus B5 [8] worked out at 10000000 mL⁻¹.
For the molecule `O=[N+]([O-])c1ccccc1S(=O)(=O)n1c(SCc2ccccn2)nc2cc(Cl)c(Cl)cc21`, the Cell viability is given as 0.83 with Vero [10] and 1.12 in the experiment with Vero [12]. Also, the Cytotoxicity in the experiment with Vero [11] is 495.8; with Vero [14], 740.1. Moreover, the TCID50 with Coxsackievirus B5 [13] turned out to be 10000000 mL⁻¹.
On to `N=C(N)N` [GUANIDINE], for which the Cytotoxicity was 825.7 with Vero [1] and 839.4 with Vero [14]. Also, the Cell viability in the experiment on Vero [23] is given as 1.41; with Vero [12] it was 1.45. Also, the values for the TCID50 with Coxsackievirus B5 [24] and in the experiment with Coxsackievirus B5 [13] were 10000 mL⁻¹ and 1000000 mL⁻¹, respectively.
